test: in vitro; conditions: human, hela cells, % viability

Row | SMILES | viability at 28.5 h, 10 µM [%]
1 | CN(CC(=O)C(C#N)c1ccccc1)Cc1ccccc1 (stereo not drawn) [CBK269432] | 96.8
2 | COc1cccc2cc(C(=O)C3=C(O)C(=O)N(CCN4CCOCC4)C3c3cccs3)oc12 (stereo not drawn) [CBK269433] | 101
3 | CS(=O)(=O)N(Cc1ccco1)Cc1cc2ccccc2nc1O [CBK269434] | 111
4 | N#CC1=C(Nc2ccccc2)Oc2cc(N)ccc2C1c1cccnc1 (stereo not drawn) [CBK269435] | 100
5 | CCN(CC(=O)N1CCN(Cc2ccc3c(c2)OCO3)CC1)S(=O)(=O)c1ccccc1 [CBK269436] | 92.3
6 | Cn1c(=O)c2c(nc(CN3CCN(C(=O)c4ccco4)CC3)n2Cc2ccccc2)n(C)c1=O [CBK269437] | 93
7 | Cc1cc(Cl)ccc1NC(=O)CN1CCN(Cc2ccccc2)CC1 [CBK269438] | 93.6
8 | O=C(Cn1c(-c2cncs2)nc2ccccc21)Nc1ccc(C(=O)N2CCCCC2)cc1 [CBK269439] | 102
9 | CN(Cc1ccccc1)Cc1nc2c([nH]1)c(=O)[nH]c(=O)n2C [CBK269442] | 106
10 | Cc1ccc(S(=O)(=O)N2CCN(CCC(=O)O)CC2)cc1 [CBK269443] | 97.1
11 | O=C(O)c1ccc(NC(=O)c2ncn(-c3ccccc3)n2)cc1 [CBK269445] | 97.7
12 | O=c1c2c3c(sc2ncn1CC(O)CO)CCCC3 (stereo not drawn) [CBK269448] | 94.8
13 | COc1ccc(Br)cc1CNCc1ccc(C(=O)O)cc1 [CBK269449C] | 96.2
14 | COc1ccc(N2CCN(Cc3nc4c(c(=O)n(C)c(=O)n4C)n3C(C)C(C)=O)CC2)cc1 (stereo not drawn) [CBK269453] | 88.7
15 | CN(C)CC(=O)Nc1ccc(Oc2ccc(Cl)cc2)cc1 [CBK269459C] | 94.9
16 | O=S(=O)(NCc1nc2ccccc2[nH]1)c1ccccc1 [CBK269460] | 94.6
17 | Cn1c(=O)n(C)c2cc(CNc3ccc(N4CCOCC4)c(C(=O)O)c3)ccc21 [CBK269463] | 84.7
18 | O=c1c2c3nc4ccccc4nc3n(CCc3ccccc3)c2ncn1C1CCCC1 [CBK269464] | 105
19 | COc1ccc(N2CCN(Cc3nc4c(c(=O)n(C)c(=O)n4C)n3CC(C)=O)CC2)cc1 [CBK269465] | 103
20 | CCOC(=O)CSc1nc(C)cc(Oc2ccc(=O)n(C)n2)n1 [CBK269476] | 101
21 | Cc1ccc(C(=O)NCCCNC(=O)c2ccncc2)cc1 [CBK269477] | 86
22 | Cc1[nH]c2ccccc2c1C(CC(=O)c1ccc(Br)cc1)C(=O)O (stereo not drawn) [CBK269480] | 90.9

Row | SMILES | viability at 28.5 h, 10 µM [%]
23 | O=C1NC2CCCCC2NC1CC(=O)N1CCN(Cc2ccccc2)CC1 (stereo not drawn) [CBK269484] | 92.5
24 | N#Cc1c(NC(=O)C(=O)NCc2cccnc2)sc2c1CCCC2 [CBK269485] | 91
25 | COC(=O)c1ccc(NC(=O)c2ccc(-n3cccn3)cc2)cc1 [CBK269486] | 90.7
26 | Cc1ccccc1Cn1c(CN2CCN(c3ccccc3)CC2)nc2c1c(=O)n(C)c(=O)n2C [CBK269488] | 94.6
27 | Fc1ccc(-c2cc(C(F)(F)F)nc(NCC3CCCO3)n2)cc1 (stereo not drawn) [CBK269492] | 89.1
28 | Cc1cccnc1NC(=O)c1ccc(NC(C)C)c([N+](=O)[O-])c1 [CBK269494] | 86.1
29 | O=C(Nc1ccc(N2CCN(C(=O)c3ccccc3F)CC2)cc1)c1nc[nH]n1 [CBK269497] | 107
30 | COc1ccc(C(=O)COc2nc3c(C(F)(F)F)cc(C4CC4)nc3o2)cc1 [CBK269498] | 87
31 | Cn1c(=O)[nH]c(=O)c2c1nc(NC1CCCCC1)n2CCCc1ccccc1 [CBK269500] | 92.7
32 | COc1ccccc1/C=C/c1nn2c(C(C)C)nnc2s1 [CBK269501] | 79.3
33 | O=c1c2c3nc4ccccc4nc3n(CCc3ccccc3)c2ncn1Cc1ccco1 [CBK269502] | 77.5
34 | COc1cccc(/C=C/c2nc(C#N)c(NCCCN3CCOCC3)o2)c1 [CBK269506] | 107
35 | CN1CCN(Cc2nc3c(c(=O)n(C)c(=O)n3C)n2CCc2ccccc2)CC1 [CBK269507] | 96.2
36 | Cc1ccc2[nH]c(SCc3nc(-c4cccs4)no3)nc2c1 [CBK269509] | 108
37 | O=C(COc1ccc(S(=O)(=O)N2CCCCC2)cc1Cl)N1CCc2ccccc2C1 [CBK269510] | 88
38 | CCOc1cc(-c2noc(CCC(=O)N3CCN(C)CC3)n2)ccc1OC [CBK269513] | 105
39 | O=C(CN1CCN(S(=O)(=O)N2CCCCC2)CC1)Nc1ccc(Br)cc1 [CBK269515] | 91.7
40 | O=C(Nc1cccc(Cl)c1)Nc1ccc(C(=O)O)c(O)c1 [CBK269518] | 94.2
41 | Cn1c(=O)c2[nH]c(CN3CCN(Cc4ccccc4)CC3)nc2n(C)c1=O [CBK269519] | 86.3
42 | COc1cccc(-c2coc3cc4oc(=O)c(CC(=O)O)c(C)c4cc23)c1 [CBK269520] | 86.6
43 | Cn1c(=O)c2c(nc(CN3CCCCC3)n2CCCc2ccccc2)n(C)c1=O [CBK269521] | 96.5
44 | Cc1cc(S(=O)(=O)NCCCn2ccnc2)c(C)cc1Br [CBK269525] | 91.8

Row | SMILES | viability at 28.5 h, 10 µM [%]
45 | COc1ccc(NC(=O)COc2noc3nc(C)c(C)c(C)c23)cc1OC [CBK269526] | 108
46 | NC(=O)C1CCN(CC(O)COc2ccc(-c3ccccc3)cc2)CC1 (stereo not drawn) [CBK269528] | 89.9
47 | Cn1c(=O)[nH]c(=O)c2c1nc(N1CCN(Cc3ccccc3)CC1)n2CCCc1ccccc1 [CBK269529] | 104
48 | O=C(NCCCN1CCOCC1)NC(=O)c1ccc(Cl)cc1 [CBK269531] | 96.4
49 | CCN1CCN(c2ccc(NC(=O)Cn3cnc4c(=O)n(C)c(=O)n(C)c43)cc2Cl)CC1 [CBK269535] | 94.3
50 | COc1cc(CNc2nn[nH]n2)ccc1OCc1ccc(F)cc1Cl [CBK269536] | 90.6
51 | CCN(CC(=O)NCc1ccncc1)S(=O)(=O)c1ccccc1 [CBK269537] | 88.7
52 | CCCCn1cnc2c(c1=O)c1nc3ccccc3nc1n2CCc1ccc(OC)cc1 [CBK269538] | 85.7
53 | O=C(COc1ccc(S(=O)(=O)N2CCCCC2)cc1Cl)Nc1ccc2c(c1)OCCO2 [CBK269540] | 97
54 | O=C(CC(C(=O)O)n1cccn1)c1ccc(Br)cc1 (stereo not drawn) [CBK269541] | 90.8
55 | COc1cc(CNC(C)(C)CO)c(Cl)cc1OC(C)C [CBK269542] | 89.9
56 | Cc1cccnc1NC(=O)c1ccc(NCCc2ccccc2)c([N+](=O)[O-])c1 [CBK269543] | 96.1
57 | CCN(CC(=O)NCc1ccccn1)S(=O)(=O)c1ccccc1 [CBK269546] | 90.2
58 | Cc1cc2c(cc1C)NC(CC(=O)Nc1cccc(Br)c1)C(=O)N2 (stereo not drawn) [CBK269548] | 73.3
59 | CCn1c(CCCNC=O)nc2ccccc21 [CBK269551] | 86.2
60 | COc1ccc(N2CCN(Cc3nc4c(c(=O)n(C)c(=O)n4C)n3Cc3cccc(C)c3)CC2)cc1 [CBK269552] | 78.4
61 | CCc1ccc(C(=O)NC(Cc2c[nH]c3ccccc23)C(=O)O)cc1 (stereo not drawn) [CBK269556] | 101
62 | Cn1c(=O)c2c(nc(CN3CCN(c4ccccc4)CC3)n2Cc2ccccc2)n(C)c1=O [CBK269557] | 85.1
63 | O=C(C1CCN(S(=O)(=O)c2ccc3ccccc3c2)CC1)N1CCC(Cc2ccccc2)CC1 [CBK269558] | 83
64 | CNc1nc(SCC(=O)Nc2ccc(Cl)c(Cl)c2)nc(N2CCOCC2)n1 [CBK269559] | 85.3
65 | Cn1c(=O)c2c(nc(CN3CCOCC3)n2CCN2CCOCC2)n(C)c1=O [CBK269560] | 106
66 | COc1ccccc1NC(=O)C(c1ccccc1)N1CCOCC1 (stereo not drawn) [CBK269561] | 107

Row | SMILES | viability at 28.5 h, 10 µM [%]
67 | Clc1ccc(-c2ccc(CNCCCN3CCOCC3)o2)cc1 [CBK269562C] | 90.5
68 | Cn1c(=O)c2c(nc(CN3CCCCC3)n2CC(=O)c2ccccc2)n(C)c1=O [CBK269563] | 87.1
69 | c1ccc(-c2nc3sc4c(ncn5cnnc45)c3c3c2CCC3)cc1 [CBK269566] | 84.3
70 | COc1cc(CNC23CC4CC(CC(C4)C2)C3)c(Cl)cc1OCC(=O)O [CBK269567] | 87.6
71 | COc1ccc(Cl)cc1S(=O)(=O)N1CCC(C(N)=O)(N2CCCCC2)CC1 [CBK269571] | 97.9
72 | Cc1ccc(C(=O)C2=C(O)C(=O)N(CCCN(C)C)C2c2ccccn2)o1 (stereo not drawn) [CBK269575] | 89.1
73 | O=C(C1=C(O)C(=O)N(CCN2CCOCC2)C1c1ccccn1)c1cc2ccccc2o1 (stereo not drawn) [CBK269576] | 107
74 | CN1CCN(Cc2nc3c([nH]2)c(=O)n(C)c(=O)n3C)CC1 [CBK269578] | 104
75 | CC(C)CNc1nc(SCC(N)=O)nc(N(C)C)n1 [CBK269579] | 93.8
76 | CC(=O)CSc1nc2c(c(=O)n(C)c(=O)n2C)n1CCCc1ccccc1 [CBK269581] | 84.6
77 | Cn1c(=O)c2c(nc(CN3CCN(Cc4ccccc4)CC3)n2CCCc2ccccc2)n(C)c1=O [CBK269582] | 90.9
78 | Cc1ccc(Cn2c(CN3CCOCC3)nc3c2c(=O)n(C)c(=O)n3C)cc1 [CBK269583] | 91.1
79 | CC(C)(C)NC(=O)Cn1cnc2c(cnn2-c2ccccc2)c1=O [CBK269586] | 91.6
80 | N#Cc1ccccc1CSc1nc2ccc([N+](=O)[O-])cc2[nH]1 [CBK269589] | 84.5
81 | Cc1ccc2cc(CN(CC(C)C)S(C)(=O)=O)c(O)nc2c1 [CBK269593] | 101
82 | COc1cc(NC(=O)c2cc3c4c(sc3nc2N)CN(C)CC4)c(OC)c(OC)c1 [CBK269597] | 77.1
83 | COC(=O)Cn1c(CN2CCN(c3cccc(Cl)c3)CC2)nc2c1c(=O)n(C)c(=O)n2C [CBK269598] | 86.7
84 | O=C(Nc1sc2c(c1C(=O)NCc1cccnc1)CCC2)c1ccco1 [CBK269599] | 81
85 | CS(=O)(=O)c1ncc(Cl)c(C(=O)N(Cc2ccccc2)Cc2ccco2)n1 [CBK269603] | 29.3
86 | CCCC(=O)Nc1cccc(NC(=O)c2nc[nH]n2)c1 [CBK269604] | 104
87 | CCOC(=O)Cn1nc([N+](=O)[O-])c(Cl)c1C [CBK269605] | 86.4
